Test results reported in US20240336567A1, “PESTICIDAL AND HERBICIDAL COMPOUNDS AND METHODS OF USE THEREOF” (AG Plenus Ltd, priority 2021, published 2024).
Where two headings read alike, the source gives them in different places.

Key:
[1] = tested on: DIGSA; assay: In-planta LTP pre-emergence, visual phenotype; type: in vivo, Digitaria sanguinalis; conditions: monocot
Experimental: (§1) A basic panel of 8 weed species (Table 3) were sowed in 4×4×7 cm plastic pots containing inert sand (Sweet sand), intensively washed using osmosis water. Each specie was sowed in a separate pot. In each pot 10-15 seeds were sowed according to the specie viability. Sowing was performed one day before application. The plants were grown for 21 days in a controlled greenhouse (26±2° C. day 20±2° C. night). Hood irrigation (tap water+Shefer 5:3:8 8 mM) was given at a 50% water content by weight. Compounds were soluble in water (DDW), and commercial herbicide control was soluble in formulation B (Table 4). Application was conducted with an industrial sprayer (TeeJet 6502E nozzle) at a rate of 2 kg/ha and spray volume of […]. Pre-emergence advanced dose response experiment application was conducted at six rates between 1-0.0312 kg/ha and spray volume of […]. Percentage of emergence was evaluated at 15 DAA. Visual phenotyping was recorded using a scale of 0-6 (0: no visible effect, 6: maximum effect) at 18 DAA. All experiments included an untreated control, a solvent control and a positive control (commercial herbicide A.I.). Statistical analysis for visual phenotyping determined by a median value of ≥3.5 and Fisher test (pval≤0.05). Statistical analysis for plant emergence determined by % emergence ≥50 and T test (pval≤0.05), as well as Wilcox test (pval≤0.05).

[2] = tested on: ECHCO; assay: In-planta LTP pre-emergence, visual phenotype; type: in vivo, Echinochloa colona; conditions: monocot
Experimental: as §1

[3] = tested on: MATCA; assay: In-planta LTP pre-emergence, visual phenotype; type: in vivo, Matricaria chamomilla; conditions: dicot
Experimental: as §1

[4] = tested on: LOLPE; assay: In-planta LTP pre-emergence, visual phenotype; type: in vivo, Lolium perenne; conditions: monocot
Experimental: as §1

[5] = tested on: AMAPA; assay: In-planta LTP pre-emergence, visual phenotype; type: in vivo, Amaranthus palmeri; conditions: dicot; for pest or weed control at 2000 g/ha: Amaranthus palmeri, 432 h, read-out: IG Inhibited growth (% effect)
Experimental: as §1

[6] = tested on: EPPHL; assay: In-planta LTP pre-emergence, visual phenotype; type: in vivo, Euphorbia heterophylla; conditions: dicot
Experimental: as §1

[7] = tested on: POAAN; assay: In-planta LTP pre-emergence, visual phenotype; type: in vivo, Poa annua; conditions: monocot; for pest or weed control at 2000 g/ha: Poa annua, 432 h, read-out: IG Inhibited growth (% effect)
Experimental: as §1

[8] = tested on: SETVI; assay: In-planta LTP pre-emergence, visual phenotype; type: in vivo, Setaria viridis; conditions: monocot; for pest or weed control at 2000 g/ha: Setaria viridis, 432 h
Experimental: as §1

[9] = tested on: ALOMY; assay: In-planta LTP pre-emergence, visual phenotype; type: in vivo, Alopecurus myosuroides; conditions: monocot
Experimental: as §1

[10] = tested on: ABUTH; assay: In-planta LTP pre-emergence, visual phenotype; type: in vivo, Abutilon theophrasti; conditions: dicot
Experimental: as §1

[11] = tested on: Eragrostis teff; assay: HTPS - Monocot - Pre-emergence; type: in vivo; conditions: N/A: not active; for Emax: read-out: HTPS - Monocot - Pre Max effect
Experimental: (§2) Arabidopsis thaliana seeds were sown in 96 well plates filled with irrigated Sweet sand (10%>clay) that is washed from salts and minerals using tap water. 5-10 seeds were sown in the center of each well. 7-8 days post sowing, at 2 true leaves stage, thinning out was performed to ensure that compound application is done on a single plant per well. The plates were placed in a controlled greenhouse in a random order inside a bath which allows flooding irrigation with tap water supplemented with a fertilizer. Applied compounds were dissolved into a final solution of 50% acetone, 49.9% DDW, 0.1% tween-20. A 96 well plate was used as a stock plate for preparing application solutions for 8 repeats. Each row contained different concentrations per chemical. Maximal concentration for application was 1.5 Kg/Ha and dilution factor is 2.5. Chemical application was performed one day after thinning out in a chemical hood. 5 μL applied on first two true leaves in each well using 12 channel pipettes. Data collection: RGB (red, green, blue) data for green area per well was documented using camera. Data is collected at a few time points during the experiment: one day after thinning and before chemical application, two-, six- or nine-days post application. During the last two documentations, visual phenotyping was performed. Data analysis: Given RGB results and visual phenotype scores, a student t-test conducted to compare between treatment and control performance for continuous data (RGB) and Fisher exact test to analyze the non-continuous data (phenotypic scores). Dose-Response curves are generated for each treatment to infer ED50 and max. inhibition parameters, using treatment's log concentration range as the […] variable and normalized green area. These experiments are conducted similarly except that either Arabidopsis thaliana or Eragrostis teff seeds were sowed (5-10 or 5-7, respectively), plant thinning out was not performed, compound dissolved into a final solution of 50% acetone, 49.9% DDW, compound application was done at 30 μL volume per well directly on sowed soil before plant emergence and data was collected 10 or 7 days after chemical application on dicot or monocot plants, respectively. Plate imaging performed at 11 and 18 DAA. RGB data for green area per well was documented and used to extract % inhibition. Dose-Response curves were built for each treatment to infer ED50, ED75 and ED90 parameters, using treatment's log concentration range as the independent variable and normalized green area as the dependent variable. Treatments were compared to controls performance given RGB results and using student's t-test (p-val≤0.05).

[12] = tested on: Arabidopsis thaliana; assay: HTPS (high throughput on soil) - Dicot - Post-emergence; type: in vivo; conditions: N/A: not active; for Emax: read-out: HTPS - Dicot - Post Max effect; for HTPS - Dicot - Post ED50: from normalized green area
Experimental: as §2, with “area.” for “area. These experiments are conducted similarly except that either Arabidopsis thaliana or Eragrostis teff seeds were sowed (5-10 or 5-7, respectively), plant thinning out was not performed, compound dissolved into a final solution of 50% acetone, 49.9% DDW, compound application was done at 30 μL volume per well directly on sowed soil before plant emergence and data was collected 10 or 7 days after chemical application on dicot or monocot plants, respectively.”

[13] = in vitro thermal shift (binding of compound to the target); conditions: thermal shift caused by binding of the compound to the (unnamed) target
[14] = tested on: Arabidopsis thaliana; assay: HTPS - Dicot - Pre-emergence; type: in vivo; conditions: N/A: not active; for Emax: read-out: HTPS - Dicot - Pre Max effect
Experimental: as §2

[15] = tested on: CHEAL; assay: In-planta LTP pre-emergence, visual phenotype; type: in vivo, Chenopodium album; conditions: dicot
Experimental: as §1

[16] = tested on: SOLNI; assay: In-planta LTP pre-emergence, visual phenotype; type: in vivo, Solanum nigrum; conditions: dicot
Experimental: as §1

[17] = tested on: AMAPA; assay: In-planta LTP post-emergence, visual phenotype; type: in vivo, Amaranthus palmeri; conditions: dicot
Experimental: A basic panel of eight weed species (Table 3) sowed in 4×4×7 cm plastic pots containing a garden mix (klasmann). Each specie was sowed in a separate pot. In each pot, 10-15 seeds were sowed according to the specie viability. Timing of application determined at a 1-2 true leaf stage. The plants grew for 30 days in a controlled greenhouse (26±2° C. day, 20±2° C. night). Hood irrigation (tap water+Shefer 5:3:8 8 mM) was given at a 50% water content by weight. Two days before application, the tested plants thinned down to three plants per pot. Compounds were soluble in water (DDW), and commercial herbicide control was soluble in formulation B (Table 4). Before application, 1% (v/v) crop oil and 0.02% (v/v) surfactant (Tergitol™ 15-5-7) were added to the solution. Application was conducted with an industrial sprayer (TeeJet 6502E nozzle) at a rate of 2 kg/ha and spray volume of […]. Plants were evaluated at 3 time points (4, 8, 12 days after application (DAA)). At each time point, visual phenotyping was recorded using a scale of 0-6 (0: no visible effect, 6: maximum effect). At 12 DAA, plants foliage was harvested, dried and weighed for dry weight analysis.
Post-emergence advanced dose response experiment included 4 species: SETVI, ECHCO, AMAPA, ABUTH (Tables 3, 5). Application was conducted at six rates between 0.6-0.0187 kg/ha and spray volume of […]. Plants were evaluated at 4 time points (6, 12, 18 and 26 DAA). At each time point, visual phenotyping was recorded using a scale of 0-6 (0: no visible effect, 6: maximum effect). At 26 DAA, plants foliage was harvested, dried and weighed for dry weight analysis.
Post-emergence advanced wide panel experiment included 24 weed species (Table 5). Application was conducted at 2 rates of 2 kg/ha and 0.25 kg/ha and spray volume of […]. Visual phenotyping was recorded at 4, 11, 17 and 20 DAA using a scale of 0-6 (0: no visible effect, 6: maximum effect). At 21 DAA, plants foliage was harvested, dried, and weighed for dry weight analysis. All experiments included an untreated control, a solvent control, and a positive control (commercial herbicide A.I.). Statistical analysis for visual phenotyping determined by a median value of ≥3.5 and Fisher test (pval≤0.05). Statistical analysis for dry weight determined by % inhibition ≥50 and T test (pval≤0.05), as well as Wilcox test (pval≤0.05).

[18] = read-out: DE Disturbed emergence (% effect)
[19] = read-out: IG Inhibited growth (% effect)

| in vitro Thermal Shift [13] | SMILES | pest or weed control at 2000 g/ha [5] | DE Disturbed emergence (% effect) [7] | pest or weed control at 2000 g/ha [8, 18] | HTPS - Monocot - Pre ED50 [11] | Emax [11] | Emax [12] | HTPS - Dicot - Post ED50 [12] | HTPS - Dicot - Pre ED50 [14] | Emax [14] | pest or weed control at 2000 g/ha [7] | pest or weed control at 2000 g/ha [8, 19] | further results |
| --- | --- | --- | --- | --- | --- | --- | --- | --- | --- | --- | --- | --- | --- |
| 16 °C | CC(N)COc1cccc(C(=O)O)n1 (stereo not drawn) [Compound 116] | 80% | DE (100) % | 100% | 10 g/ha | 100% | 100% | 3 g/ha | 10 g/ha | 100% | – | – | DE Disturbed emergence (% effect) [1]: DE (100) %; DE Disturbed emergence (% effect) [2]: DE (100) %; BL Bleaching (% effect) [3]: BL^4 (40), %; DAB Disturbed apical bud (% effect) [3]: DAB (60) %; IG Inhibited growth (% effect) [3]: IG (80), %; DE Disturbed emergence (% effect) [4]: DE (100) %; C Chlorosis (% effect) [5]: C^3 (60), %; DAB Disturbed apical bud (% effect) [5]: DAB (100) %; BL Bleaching (% effect) [6]: BL (80), %; DAB Disturbed apical bud (% effect) [6]: DAB (80) %; IG Inhibited growth (% effect) [6]: IG (60), %; IG Inhibited growth (% effect) [9]: IG (100), %; W Wilting (% effect) [9]: W^5 (100) %; BL Bleaching (% effect) [10]: Bl (80), %; DAB Disturbed apical bud (% effect) [10]: DAB (80) %; IG Inhibited growth (% effect) [10]: IG (80), %; DAB Disturbed apical bud (% effect) [15]: DAB (80) %; IG Inhibited growth (% effect) [15]: IG (80), %; DAB Disturbed apical bud (% effect) [16]: DAB^2 (80) %; IG Inhibited growth (% effect) [16]: IG (80), % |
| 16 °C | CC(N)COc1ccc(F)c(C(=O)O)c1 (stereo not drawn) [Compound 108] | 60% | DE (80) % | 100% | 290 g/ha | 80% | 100% | 31 g/ha | 31 g/ha | 100% | 80% | 100% | – |
| 14 °C | CC(N)COc1cc(Cl)cc(C(=O)O)c1 (stereo not drawn) [Compound 109] | 60% | DE (100), % | 100% | 681 g/ha | 80% | – | – | – | – | 100% | – | BL Bleaching (% effect) [17]: BL (40) % |
| 12 °C | CC(N)COc1cncc(C(=O)O)n1 (stereo not drawn) [Compound 148] | – | – | 100% | – | 100% | 17% | – | – | 28% | 40% | 100% | DE Disturbed emergence (% effect) [3]: DE (40) %; DRD Disturbed root development (% effect) [7]: DRD (40) %; DRD Disturbed root development (% effect) [8]: DRD^7 (100), %; DRD Disturbed root development (% effect) [9]: DRD (60) % |
| 13 °C | CC(CN)Oc1cccc(C(=O)O)c1 (stereo not drawn) [Compound 102] | 60% | – | 100% | 650 g/ha | 62% | 92% | 127 g/ha | 127 g/ha | 100% | 60% | 100% | – |
